The test system of assay [1] is clinical isolates of C. tropicalis. Briefly: potentiation of fluconazole vs. clinical isolates of C. tropicalis. The format is cell-based. The settings on record: for MIC50 / MIC90: Candida tropicalis.
In assay [2] the test system is clinical isolates of C. krusei. Briefly: potentiation of fluconazole vs. clinical isolates of C. krusei. It is filed as cell-based. To be noted: Pichia kudriavzevii.
The subject of assay [3] is clinical isolates of C. parapsilosis. Briefly: potentiation of fluconazole vs. clinical isolates of C. parapsilosis. The settings on record: Lodderomyces parapsilosis. The format is cell-based.
The test system of a further assay is A. fumigatus. Briefly: potentiation of Posaconazole vs. A. fumigatus. The format is cell-based, Aspergillus fumigatus. The settings on record: 15 strains.
[4] abbreviates: fluconazole MIC with FEPI at 16-32 μg/ml, C. tropicalis clinical isolates, read-out: MIC90 Flu + FEPI.
Where [5] appears, read: fluconazole MIC with FEPI at 16-32 μg/ml, C. krusei clinical isolates, read-out: MIC50 Flu + FEPI.
Where [6] appears, read: fluconazole MIC with FEPI at 16-32 μg/ml, C. krusei clinical isolates, read-out: MIC90 Flu + FEPI.
Setting [7] is: fluconazole MIC with FEPI at 16-32 μg/ml, read-out: MIC50 Flu + FEPI.
Setting [8] is: fluconazole MIC with FEPI at 16-32 μg/ml, read-out: MIC90 Flu + FEPI.

Like-named read-outs stand apart in the source and are kept apart here. A value given as a limit tells only on which side of the number the result lay.

On to `OC(Cn1cncn1)(Cn1cncn1)c1ccc(F)cc1F` [fluconazole, reference compound], for which the MIC50 in assay [1] (read-out: MIC50 Flu only) is above 128 µg/mL; in assay [2] (fluconazole alone, C. krusei clinical isolates, read-out: MIC50 Flu only) it was 64 µg/mL; in assay [3] (fluconazole alone, read-out: MIC50 Flu only), 1 µg/mL. The MIC90 in assay [1] (read-out: MIC90 Flu only) was above 128 µg/mL; in assay [2] (read-out: MIC90 Flu only), above 128 µg/mL; in assay [3] (fluconazole alone, read-out: MIC90 Flu only), 4 µg/mL. The “MIC50 Flu only” value in assay [1] (listed as Flu) was 128 µg/mL.

For the compound `COc1ccc(N(C(=O)Nc2cccc(Cl)c2)C(C)c2nc3ccccc3c(=O)n2N2CCN(C)CC2)c(OC)c1` (stereo not drawn) [Compound 1, 3-(3-Chloro-phenyl)-1-(2,4-dimethoxy-phenyl)-1-{1-[3-(4-methyl-piperazin-1-yl)-4-oxo-3,4-dihydro-quinazolin-2-yl]-ethyl}-urea], the MIC50 was 0.125 µg/mL in assay [1] (fluconazole MIC with FEPI at 16-32 μg/ml, […], read-out: MIC50 Flu + FEPI); 32 µg/mL in assay [2] (setting [5]); below 0.03 µg/mL in assay [3] (setting [7]). Moreover, the MIC90 is 2 µg/mL in assay [1] (setting [4]), above 32 µg/mL in assay [2] (setting [6]) and 0.25 µg/mL in assay [3] (setting [8]). For the same compound, in the assay on A. fumigatus (concentration of efflux pump inhibitor to reduce MIC of Posaconazole 8-fold), the MPC8 was in the range of 8 to 32 µg/mL. Besides, the MIC in the assay on A. fumigatus (Aspergillus fumigatus, footnote: minimum inhibitor concentration of Posaconazole alone to achieve 80% inhibition) was above 32 µg/mL.

For the compound `COc1ccc(N(C(=O)Nc2cccc(Cl)c2)C(C)c2nc3ccccc3c(=O)n2N2CCN(CCO)CC2)c(OC)c1` (stereo not drawn) [Compound 3, 3-(3-Chloro-phenyl)-1-(2,4-dimethoxy-phenyl)-1-(1-{3-[4-(2-hydroxy-ethyl)-piperazin-1-yl]-4-oxo-3,4-dihydro-quinazolin-2-yl}-ethyl)-urea], the MIC50 in assay [1] (fluconazole MIC with FEPI at 16-32 μg/ml, C. tropicalis clinical isolates, read-out: MIC50 Flu + FEPI) was 0.25 µg/mL; in assay [2] (setting [5]) it was above 32 µg/mL; in assay [3] (setting [7]) it was below 0.03 µg/mL. Further, the MIC90 in assay [1] (setting [4]) was 8 µg/mL; in assay [2] (setting [6]), above 32 µg/mL; in assay [3] (setting [8]) it was 0.5 µg/mL.
